Laboratory results taken from PMC9582434, “Ryanodine receptor-active non-dioxin-like polychlorinated biphenyls cause neurobehavioral deficits in larval zebrafish” (Frontiers in Toxicology, 2022).

Legend:
[1] = tested on: RYR paralogs found in zebrafish skeletal muscle; assay: [3H]ryanodine ligand binding assay, adult zebrafish tail muscle microsomes
Description: Sensitization of the zebrafish RYR by ortho-PCBs was measured using [^3H]ryanodine ([^3H]Ry) ligand binding assays as previously described ([Fritsch and Pessah, 2013]). Briefly, crude microsomal protein preparations were created from the tail (post dorsal fin) muscle (primarily white skeletal muscle) of six adult zebrafish (∼1 year old) that was homogenized in a buffer containing 320 mM sucrose, 5 mM HEPES, 1 mM PMSF, 10 mM NaF, 2 mM β-Glycerol, 5 mM Na4P2O7, 0.5 mM Na3VO4 and 2 μg/L leupeptin (pH 7.2). The homogenate was centrifuged at 5,000 × g (4°C) for 15 min. The pellet was re-homogenized in 5 ml homogenization buffer and centrifuged at 5,000 × g. Supernatants were combined for ultracentrifugation at 100,000 g (4°C for 1 h). The resultant pellet was re-suspended in a buffer of 320 mM sucrose and 5 mM HEPES (Sigma-Aldrich, St. Louis, MO, United States) at pH 7.2. Protein concentrations were determined in triplicate using a BCA Assay (Fisher Scientific, Waltham, MA, United States). [^3H]Ry ligand binding assays were conducted with 40 μg/ml of the crude protein homogenate in the presence of DMSO (0.5%) or 0.1–50 μM of individual PCB congeners in 0.5% DMSO. Tests were run using 5 nM [^3H]Ry (Perkin Elmer Waltham, MA, United States), 250 mM KCl, 20 mM HEPES, 15 mM NaCl, and 50 μM CaCl2 (pH 7.1) and incubated for 16 h at 25°C. Non-specific binding was determined with the addition of 10 µM ryanodine (Tocris Bioscience, Bristol, United Kingdom) and 200 μM EGTA (Sigma-Aldrich, St. Louis, MO, United States). Assays were terminated by rapid filtration through Whatman GF/B filter paper (Brandel, Gaithersburg, MD, United States) and washed with ice-cold buffer containing 140 mM KCl, 10 mM HEPES, and 0.1 mM CaCl2, pH 7.4. Bound radioligand was measured by liquid scintillation counting (Beckman Coulter, Indianapolis, IN, United States). PCB-induced [^3H]Ry binding was assessed in two different protein preparations, and each assay was run in triplicate. Individual PCB concentration-response curves were determined using non-linear regression (GraphPad Prism 6.0, GraphPad Software Inc., San Diego, CA, United States).

larval zebrafish = assay: Larval photomotor behavior test (light/dark locomotor test); format: in vivo
Description: At 4 hpf, embryos were treated with 50 µl of 41 mg/ml protease from Streptomyces griseus (P5147, Sigma-Aldrich, St. Louis, MO, United States) in 25 ml of FW for a maximum of 6 min to remove the chorion ([Truong et al., 2011]). At 5 hpf, embryos were placed in individual wells of 96-well plates filled with 100 µl of EM. At 6 hpf, embryos were exposed to a 2× concentration of the selected PCB congeners or controls that were diluted in 100 μl EM to produce a 1× concentration in a total of 200 µl solution. […] After exposure, plates were covered with Parafilm M (Bemis NA, Neenah, WI, United States) to reduce evaporation and placed in an incubator at 28.5°C with 14 h light (∼300 lux)/10 h dark cycles. Final DMSO concentrations were 0.2% (vol/vol) for all exposures. Fish were statically exposed until 5 dpf.
Larval locomotor tests were performed at 3, 4, and 5 dpf. Vehicle and PCB-exposed larvae in 96-well plates were placed in a DanioVision behavior system (Noldus Information Technology, Leesburg, VA, United States) and subjected to a 35 min light/dark locomotor test. System and plate temperature were maintained at 28.5 ± 0.5°C using a temperature control unit from Noldus. The testing paradigm consisted of a 10 min light period (∼1,900 lux) to allow for acclimation (5 min) and to record baseline swimming (5 min). This was followed by a 5 min dark period (∼0 lux) to stimulate increased swimming behavior and a 5 min light period (∼1,900 lux) to stimulate freezing behavior. The last 15 min consisted of a dark period (∼0 lux) to observe increased swimming behavior and acclimation to the dark conditions.
The distance traveled binned per minute by each larva during the 35-min observation test period was recorded via continuous tracing using a DanioVision system camera with an infrared filter to allow recording in both light and dark conditions. Movement was tracked using EthoVisionXT software (Noldus Information Technology) and exported to Excel and Prism 6.0 (GraphPad Software) for analysis and visualization. Dead and/or malformed larvae (as noted by observation under dissecting scope) were excluded from the behavior analysis.
The trapezoidal rule was used to compute the area under the curve (AUC) for each fish per day per lighting condition. The first 5 min of the 35-min observation period was removed to account for initial acclimation. Therefore, data were analyzed for the following time epochs: Light 1 (L1) = 6–10 min, Dark 1 (D1) = 11–15 min, Light 2 (L2) = 16–20 min, and Dark 2 (D2) = 21–35 min. Mixed effects regression models, including zebrafish-specific random effects, were used to assess differences between groups. DMSO groups from each spawn date (≥3 independent spawns) and plate were combined in the analysis. Separate models were fit for each congener. New variables were defined to capture differences in the AUC between Light 1 and Dark 1, Dark 1 and Light 2, and Light 2 and Dark 2, to measure change in distance traveled when transitioning from light to dark or dark to light. Contrasts were specified to compare these transitions and the AUC during each of the lighting conditions between the exposed groups and the DMSO control group. […] Due to some zeroes in the AUC, all values were shifted by 0.1 prior to taking the natural logarithm. Concentration (0.1, 0.3, 1, 3, 10 µM and DMSO), day (3, 4, 5 dpf), and the transition variables were all of interest in the models, including their interactions. Akaike information criterion was used for model selection and Wald tests for comparing groups. All analyses were conducted using SAS version 9.4.
The neurotoxic potential of the congeners tested in this study were ranked based on the three endpoints measured in this study: RYR binding, behavior, and body burden. Congeners were ranked relative to each other for each individual endpoint from 1 (highest) to 6 (lowest), and then the three scores for each congener averaged to obtain an overall relative ranking for each congener. […]

RYR = tested on: RYR; set-up: method as in Pessah et al., 2006; Holland et al., 2017a; conditions: ref Pessah et al., 2006; Holland et al., 2017a; cited from earlier work

SMILES: Clc1cc(Cl)c(-c2cc(Cl)c(Cl)cc2Cl)cc1Cl [PCB 153, 2,2',4,4',5,5'-Hexachlorobiphenyl]
- EC2X ([1]; concentration causing two-fold induction in ligand binding vs DMSO control): 3.88
- Max. response SEM (%) ([1]; maximum [3H]Ry binding response compared to DMSO control, mean ± SEM): 320.40 ± 92.18%
- EC50 ([1]; relative EC50, concentration causing half-maximum response, PCB 0.1–50 μM): 4.34 µM
- RYR activity (in words) ([1]; zebrafish muscle): moderate
- L1-D1 transition relative to vehicle control (larval zebrafish; 0.3 µM, 4 dpf): attenuating
- distance moved relative to vehicle control (larval zebrafish; 0.3 µM, 4 dpf, L1): moved more
- L1-D1 transition relative to vehicle control (larval zebrafish; 1 µM, 3 dpf): larger
- distance moved relative to vehicle control (larval zebrafish; 1 µM, 3 dpf, D1): moved more
- distance moved relative to vehicle control (larval zebrafish; 1 µM, 3 dpf, D2): moved more
- distance moved relative to vehicle control (larval zebrafish; 1 µM, 3 dpf, L2): moved more
- L1-D1 transition relative to vehicle control (larval zebrafish; 10 µM, 3 dpf): larger
- distance moved relative to vehicle control (larval zebrafish; 10 µM, 3 dpf, D1): moved more
- distance moved relative to vehicle control (larval zebrafish; 10 µM, 3 dpf, D2): moved more
- distance moved relative to vehicle control (larval zebrafish; 10 µM, 3 dpf, L2): moved more
- distance moved relative to vehicle control (larval zebrafish; 10 µM, 4 dpf, L2): moved more
- L1-D1 transition relative to vehicle control (larval zebrafish; 10 µM, 5 dpf): attenuated
- distance moved relative to vehicle control (larval zebrafish; 10 µM, 5 dpf, L1): moved more
- distance moved relative to vehicle control (larval zebrafish; 10 µM, 5 dpf, L2): more movement
- Behavior score (total change from control) (larval zebrafish; sum of absolute [1 − (AUC value/DMSO)] over all concentrations, epochs and 3, 4, 5 dpf): 23.05
- in vitro potency at the RYR (in words) (RYR): moderate
